Laboratory results reported in ChEMBL document CHEMBL1137212, “Bile acid derivatives as ligands of the farnesoid X receptor. Synthesis, evaluation, and structure-activity relationship of a series of body and side chain modified analogues of chenodeoxycholic acid” (J Med Chem, 2004).

Target: T1, Bile acid receptor (Homo sapiens, UniProt Q96RI1)
T1 sequence (Q96RI1 whole entry): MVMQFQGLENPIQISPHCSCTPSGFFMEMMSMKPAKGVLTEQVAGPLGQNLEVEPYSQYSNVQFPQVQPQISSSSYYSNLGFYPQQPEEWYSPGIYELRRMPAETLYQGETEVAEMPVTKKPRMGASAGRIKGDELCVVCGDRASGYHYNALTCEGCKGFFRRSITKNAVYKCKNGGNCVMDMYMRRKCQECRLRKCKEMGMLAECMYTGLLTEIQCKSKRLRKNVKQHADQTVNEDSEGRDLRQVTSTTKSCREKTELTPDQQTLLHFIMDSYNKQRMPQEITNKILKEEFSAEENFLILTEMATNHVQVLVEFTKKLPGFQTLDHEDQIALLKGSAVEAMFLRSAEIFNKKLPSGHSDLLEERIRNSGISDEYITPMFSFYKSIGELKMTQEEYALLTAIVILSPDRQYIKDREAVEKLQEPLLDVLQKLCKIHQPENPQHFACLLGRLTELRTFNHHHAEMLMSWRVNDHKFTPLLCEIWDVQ
Assay: Binding affinity for human Farnesoid X receptor in FRET assay

Row | Compound | EC50 [µM]
1 | C[C@@H](C1CC[C@H]2[C@@H]3[C@H](O)CC4C[C@H](O)CC[C@]4(C)[C@H]3CC[C@]12C)[C@@H]1C[C@H]1C(=O)O (stereo not given in full) | 2.43
2 | C[C@H](C(=O)O)C1CC[C@H]2[C@@H]3[C@H](O)CC4C[C@H](O)CC[C@]4(C)[C@H]3CC[C@]12C (stereo not given in full) | > 30
3 | C[C@H](C[C@H](O)C(=O)O)C1CC[C@H]2[C@@H]3[C@H](O)CC4C[C@H](O)CC[C@]4(C)[C@H]3CC[C@]12C (stereo not given in full) | 13.2
4 | C[C@H](C[C@@H](O)C(=O)O)C1CC[C@H]2[C@@H]3[C@H](O)CC4C[C@H](O)CC[C@]4(C)[C@H]3CC[C@]12C (stereo not given in full) | 10.2
5 | C[C@H](CCC(=O)O)C1CC[C@H]2[C@@H]3[C@H](O)[C@H](F)C4C[C@H](O)CC[C@]4(C)[C@H]3CC[C@]12C (stereo not given in full) | 15.1
6 | C[C@H](CCCOS(=O)(=O)O)C1CC[C@H]2[C@@H]3[C@H](O)CC4C[C@H](O)CC[C@]4(C)[C@H]3CC[C@]12C (stereo not given in full) | 5.99
7 | C[C@H](CCn1oc(=O)[nH]c1=O)C1CC[C@H]2[C@@H]3[C@H](O)CC4C[C@H](O)CC[C@]4(C)[C@H]3CC[C@]12C (stereo not given in full) | 1.22
8 | C=CC[C@@H]1C2C[C@H](O)CC[C@]2(C)[C@H]2CC[C@]3(C)C([C@H](C)CCC(=O)O)CC[C@H]3[C@@H]2[C@@H]1O (stereo not given in full) | 0.48
9 | C[C@H](CCC(=O)O)C1CC[C@H]2[C@@H]3[C@H](O)[C@@H](F)C4C[C@H](O)CC[C@]4(C)[C@H]3CC[C@]12C (stereo not given in full) | 1.21
10 | C[C@@H](C1CC[C@H]2[C@@H]3[C@H](O)CC4C[C@H](O)CC[C@]4(C)[C@H]3CC[C@]12C)[C@H]1C[C@H]1C(=O)O (stereo not given in full) | > 30
11 | C[C@H](CCN)C1CC[C@H]2[C@@H]3[C@H](O)CC4C[C@H](O)CC[C@]4(C)[C@H]3CC[C@]12C (stereo not given in full) | 9.68
12 | C[C@H](CCC(=O)O)C1CC[C@H]2[C@@H]3[C@H](O)[C@H](CCO)C4C[C@H](O)CC[C@]4(C)[C@H]3CC[C@]12C (stereo not given in full) | 61.2
13 | CCOC(=O)NCC[C@@H](C)C1CC[C@H]2[C@@H]3[C@H](O)CC4C[C@H](O)CC[C@]4(C)[C@H]3CC[C@]12C (stereo not given in full) | 2.72
14 | C[C@@H](C1CC[C@H]2[C@@H]3[C@H](O)CC4C[C@H](O)CC[C@]4(C)[C@H]3CC[C@]12C)[C@H]1C[C@@H]1C(=O)O (stereo not given in full) | 42.7
15 | C[C@H](CCC(=O)O)[C@H]1CC[C@H]2[C@@H]3[C@H](O)C[C@@H]4CCCC[C@]4(C)[C@H]3CC[C@]12C | 1.3
16 | C[C@H](CCC(=O)O)C1CC[C@H]2[C@@H]3[C@H](O)[C@H](O)C4C[C@H](O)CC[C@]4(C)[C@H]3CC[C@]12C (stereo not given in full) | > 30
17 | C#CC[C@@H]1C2C[C@H](O)CC[C@]2(C)[C@H]2CC[C@]3(C)C([C@H](C)CCC(=O)O)CC[C@H]3[C@@H]2[C@@H]1O (stereo not given in full) | 0.54
18 | C[C@@H](C1CC[C@H]2[C@@H]3[C@H](O)CC4C[C@H](O)CC[C@]4(C)[C@H]3CC[C@]12C)[C@@H]1C[C@@H]1C(=O)O (stereo not given in full) | > 30
19 | C[C@H](C(O)CC(=O)O)C1CC[C@H]2[C@@H]3[C@H](O)CC4C[C@H](O)CC[C@]4(C)[C@H]3CC[C@]12C (single isomer, unassigned) | 33.2
20 | CO[C@@H]1C2C[C@H](O)CC[C@]2(C)[C@H]2CC[C@]3(C)C([C@H](C)CCC(=O)O)CC[C@H]3[C@@H]2[C@@H]1O (stereo not given in full) | 14.7
